Assays:
[1] = system: MOLT-4 (Leukemia); assay: NCI one dose, MOLT-4; format: cell-based, human; details: MOLT-4, 1.00E-5 Molar one dose
Procedure: (§1) 3.4. Cell Proliferation Assay
(§2) Selected compounds were tested on a panel of 60 human cancer cell lines at the National Cancer Institute (NCI), Germantown, MD, USA. The cytotoxicity studies were conducted using a 48 h exposure protocol using the sulfo-rhodamine B assay.

[2] = system: SK-MEL-5 (Melanoma); assay: NCI one dose, SK-MEL-5; format: cell-based, human; details: SK-MEL-5, 1.00E-5 Molar one dose
Procedure: as §1, §2

[3] = system: NCI-H460 (Non-Small Cell Lung Cancer); assay: NCI one dose, NCI-H460; format: cell-based, human; details: NCI-H460, 1.00E-5 Molar one dose
Procedure: as §1, §2

[4] = system: RPMI-8226 (Leukemia); assay: NCI one dose, RPMI-8226; format: cell-based, human; details: RPMI-8226, 1.00E-5 Molar one dose
Procedure: as §1, §2

[5] = system: MALME-3M (Melanoma); assay: NCI one dose, MALME-3M; format: cell-based, human; details: 1.00E-5 Molar one dose
Procedure: as §1, §2

[6] = system: CAKI-1 (Renal Cancer); assay: NCI one dose, CAKI-1; format: cell-based, human; details: CAKI-1, 1.00E-5 Molar one dose
Procedure: as §1, §2

[7] = system: KM12 (Colon Cancer); assay: NCI one dose, KM12; format: cell-based, human; details: KM12, 1.00E-5 Molar one dose
Procedure: as §1, §2

[8] = system: SF-268 (CNS Cancer); assay: NCI one dose, SF-268; format: cell-based, human; details: SF-268, 1.00E-5 Molar one dose
Procedure: as §1, §2

[9] = system: MDA-MB-231/ATCC (Breast Cancer); assay: NCI one dose, MDA-MB-231/ATCC; format: cell-based, human; details: 1.00E-5 Molar one dose
Procedure: as §1, §2

[10] = system: SR (Leukemia); assay: NCI one dose, SR; format: cell-based, human; details: 1.00E-5 Molar one dose
Procedure: as §1, §2

[11] = system: OVCAR-4 (Ovarian Cancer); assay: NCI one dose, OVCAR-4; format: cell-based, human; details: OVCAR-4, 1.00E-5 Molar one dose
Procedure: as §1, §2

[12] = system: RXF 393 (Renal Cancer); assay: NCI one dose, RXF 393; format: cell-based, human; details: RXF 393, 1.00E-5 Molar one dose
Procedure: as §1, §2

[13] = system: U251 (CNS Cancer); assay: NCI one dose, U251; format: cell-based, human; details: U251, 1.00E-5 Molar one dose
Procedure: as §1, §2

[14] = system: 786-0 (Renal Cancer); assay: NCI one dose, 786-0; format: cell-based, human; details: 786-0, 1.00E-5 Molar one dose
Procedure: as §1, §2

[15] = system: OVCAR-8 (Ovarian Cancer); assay: NCI one dose, OVCAR-8; format: cell-based, human; details: OVCAR-8, 1.00E-5 Molar one dose
Procedure: as §1, §2

[16] = system: A549/ATCC (Non-Small Cell Lung Cancer); assay: NCI one dose, A549/ATCC; format: cell-based, human; details: 1.00E-5 Molar one dose
Procedure: as §1, §2

[17] = system: UO-31 renal cancer cells; assay: NCI one dose, UO-31; format: cell-based, human; details: UO-31, 1.00E-5 Molar one dose
Procedure: as §1, §2

[18] = system: SF-539 (CNS Cancer); assay: NCI one dose, SF-539; format: cell-based, human; details: SF-539, 1.00E-5 Molar one dose
Procedure: as §1, §2

[19] = system: panel of 60 human cancer cell lines; assay: NCI 60 cell panel one dose screen (whole panel); format: cell-based; design: Delta (One Dose Mean Graph): unit not given here; details: 1.00E-5 Molar one dose; for Range (One Dose Mean Graph): in % (unit assumed); for Mean Growth Percent: mean over tested cell lines
Procedure: as §1
Selected compounds were tested on a panel of 60 human cancer cell lines at the National Cancer Institute (NCI), Germantown, MD, USA. The cytotoxicity studies were conducted using a 48 h exposure protocol using the sulfo-rhodamine B assay. […]
X. NCI One Dose Mean Graph of sulfides 4a(A -J) and 4b(A-J)
The entire series of sulfides regrouping twenty synthesized FTI-candidates (4aA-J, 4bA-J) were selected by the National Cancer Institute (NCI) for evaluation of their antiproliferative activity against 60 cancer cell lines (see the followings twenty pages for full evaluation reports). […]
inhibiting 36% of the NCI-H522 cells. Such difference between IC50 on human FTase in the nanomolar range and IC50 on cancer cell growth in the micromolar range is characteristic to potent FTIs and was reported previously on different series of compounds (see for example ref erence in the references part […]
Of interest, none of the tested compounds at a high single dose (10 µM) in the full NCI 60 cell panel has shown a cytotoxic profile. […]
inhibitory potential on FTase raise good hope for further investigation of these series as agents fighting

[20] = system: TK-10 (Renal Cancer); assay: NCI one dose, TK-10; format: cell-based, human; details: TK-10, 1.00E-5 Molar one dose
Procedure: as §1, §2

[21] = system: NCI-H23 (Non-Small Cell Lung Cancer); assay: NCI one dose, NCI-H23; format: cell-based, human; details: NCI-H23, 1.00E-5 Molar one dose
Procedure: as §1, §2

[22] = system: A498 (Renal Cancer); assay: NCI one dose, A498; format: cell-based, human; details: A498, 1.00E-5 Molar one dose
Procedure: as §1, §2

[23] = system: T-47D (Breast Cancer); assay: NCI one dose, T-47D; format: cell-based, human; details: 1.00E-5 Molar one dose
Procedure: as §1, §2

[24] = system: HCC-2998 (Colon Cancer); assay: NCI one dose, HCC-2998; format: cell-based, human; details: HCC-2998, 1.00E-5 Molar one dose
Procedure: as §1, §2

[25] = system: PC-3 (Prostate Cancer); assay: NCI one dose, PC-3; format: cell-based, human; details: PC-3, 1.00E-5 Molar one dose
Procedure: as §1, §2

[26] = system: IGROV1 (Ovarian Cancer); assay: NCI one dose, IGROV1; format: cell-based, human; details: IGROV1, 1.00E-5 Molar one dose
Procedure: as §1, §2

| Structure (SMILES) | Growth Percent [1] [%] | Growth Percent [2] [%] | Growth Percent [3] [%] | Growth Percent [4] [%] | Growth Percent [5] [%] | Growth Percent [6] [%] | Growth Percent [7] [%] | Growth Percent [8] [%] | Growth Percent [9] [%] | Growth Percent [10] [%] | Growth Percent [11] [%] | Growth Percent [12] [%] | Growth Percent [13] [%] | Growth Percent [14] [%] | Growth Percent [15] [%] | Growth Percent [16] [%] | Growth Percent [17] [%] | Growth Percent [18] [%] | Delta (One Dose Mean Graph) [19] | Range (One Dose Mean Graph) [19] | further results |
| --- | --- | --- | --- | --- | --- | --- | --- | --- | --- | --- | --- | --- | --- | --- | --- | --- | --- | --- | --- | --- | --- |
| COc1cccc(CNC(=O)[C@@H]2CS[C@@]3(C)c4ccccc4C(=O)N23)c1 [4bE] | 85.50 | 101.12 | 104.83 | 95.74 | 110.68 | 85.65 | 107.56 | 106.18 | 105.57 | 81.22 | 94.52 | 107.08 | 100.00 | 105.14 | 90.08 | 76.25 | 91.68 | 104.59 | 31.41 | 48.09 | Mean Growth Percent [19]: 98.86%; Growth Percent [20]: 95.45%; Growth Percent [21]: 98.91%; Growth Percent [22]: 85.49%; Growth Percent [23]: 96.67%; Growth Percent [24]: 107.01%; Growth Percent [25]: 96.89%; Growth Percent [26]: 107.98% |
| COc1ccc(CNC(=O)[C@@H]2CS[C@@]3(C)c4ccccc4C(=O)N23)cc1 [4bF] | 76.38 | 103.30 | 110.45 | 88.87 | 111.34 | 85.69 | 96.53 | 98.37 | 93.86 | 84.33 | 98.29 | 95.28 | 93.45 | 98.12 | 94.06 | 80.46 | 89.30 | 105.73 | 24.39 | 39.02 | Mean Growth Percent [19]: 96.71%; Growth Percent [20]: 99.99%; Growth Percent [21]: 96.08%; Growth Percent [22]: 96.46%; Growth Percent [23]: 97.83%; Growth Percent [24]: 101.61%; Growth Percent [25]: 93.51%; Growth Percent [26]: 107.92% |
| COc1ccccc1CNC(=O)[C@@H]1CS[C@@]2(C)c3ccccc3C(=O)N12 [4bG] | 96.78 | 98.16 | 107.31 | 96.98 | 100.10 | 90.92 | 103.74 | 105.82 | 98.66 | 82.72 | 95.75 | 105.28 | 94.53 | 104.93 | 95.21 | 78.33 | 94.50 | 109.96 | 28.52 | 40.41 | Mean Growth Percent [19]: 98.55%; Growth Percent [20]: 91.89%; Growth Percent [21]: 103.28%; Growth Percent [22]: 93.00%; Growth Percent [23]: 98.35%; Growth Percent [24]: 108.79%; Growth Percent [25]: 98.65%; Growth Percent [26]: 107.94% |
